In patent US8754128B2, “Dioxoanthracene sulphonate derivatives” (Laboratoire Medidom SA, priority 2007, dated 2014):
Values after ≈ are worked out from the molar mass of the structure shown.

What was measured:
Solubility in water = format: physicochemical; conditions: for solubility of test solutions for chondrocyte culture: rhein needed five minutes sonication; for solubility in water (in words): water / aqueous solution
[1] = tested on: IL-1 β cytokine production by human normal and osteoarthritic (OA) chondrocytes; test: In vitro IL-1β inhibition in LPS-stimulated human chondrocytes (ELISA); format: cell-based
Excerpt: The activity of the compound of example 1, and of rhein in inhibiting the lipopolysaccharide (LPS) stimulated production of IL-1 β cytokine by human normal and osteoarthritic (OA) chondrocytes was studied.
Human cartilage was obtained during orthopaedic surgery for total hip prosthesis due to traumatic fracture in normal subjects or OA patients. Patients with OA were selected on the basis of the following criteria (1) bi-lateral OA, (2) diagnoses of moderate OA (grade I-III, Kellgren-Laurence), supported by radiology and pathology.
A suspension of isolated chondrocytes was prepared from cartilage specimens obtained from four OA patient and nine normal subjects. Specimens were obtained and maintained under aseptic conditions. The cartilage was cut into small fragments and incubated with 1 mg/ml clostridial collagenase in carbonate/bicarbonate buffer for 48 hours at 37° C. Once separated from the cartilage matrix, chondrocytes were centrifuged at 1500 RPM for five minutes. The separated chondrocytes, suspended in culture medium (DMEM supplemented with 10% SCF) were used for the experiment. Cell viability was evaluated by Trypan blue exclusion.
In vitro stimulation of chondrocytes with bacterial endotoxin (LPS) for the production of IL-1 β was carried out as follows: […]

colon and kidney cells = conditions: Comet assay, Müller et al. 1996; cited from earlier work

Row | solubility of test solutions for chondrocyte culture (Solubility in water) | solubility in water (in words) (Solubility in water) | Structure (SMILES) | other results
1 | solubility problems | practically insoluble in water | O=C(O)c1cc(O)c2c(c1)C(=O)c1cccc(O)c1C2=O [rhein, 4,5-dihydroxy-9,10-dioxo-2-anthracene carboxylic acid] | –
2 | good solubility | – | O=C(O)c1cc(O)c2c(c1)C(=O)c1ccc(S(=O)(=O)O)c(O)c1C2=O [Example 1, 6-sulfo-4,5-dihydroxy-9,10-dioxo-2-anthracene carboxylic acid] | solubility (Solubility in water; water): 1200 µg/mL (≈ 3.29 mM); IL-1β inhibition activity compared with rhein (FIG. 3) ([1]; LPS-stimulated normal and OA chondrocytes, 48 hours, ELISA): significantly increased IL-1β inhibition activity compared with rhein; inhibition of IL-1β production (FIG. 4) ([1]; LPS-stimulated normal chondrocytes, dose-dependent): significant inhibition of IL-1β production
3 | – | – | O=C1c2cccc(O)c2C(=O)c2c(O)cc(CO)cc21 [Aloe-emodin] | clastogenic effect (colon and kidney cells): clastogenic effect in colon and kidney cells
4 | – | practically insoluble in water | CC(=O)Oc1cccc2c1C(=O)c1c(OC(C)=O)cc(C(=O)O)cc1C2=O [diacerein] | –
